Test results from ChEMBL document CHEMBL3994622, “Design and synthesis of new RAF kinase-inhibiting antiproliferative quinoline derivatives. Part 2: Diarylurea derivatives” (Eur J Med Chem, 2017).

How the values were obtained:
Assay type in all cases: functional
RPMI-8226 = assay: Growth inhibition of human RPMI8226 cells assessed as cell growth at 10 uM incubated for 48 hrs by sulforhodamine B assay relative to control; settings: RPMI-8226, 48 h, read-out: Activity
RXF 393 = assay: Growth inhibition of human RXF393 cells assessed as cell growth at 10 uM incubated for 48 hrs by sulforhodamine B assay relative to control; settings: RXF 393, 48 h, read-out: Activity
NCI/ADR-RES = assay: Growth inhibition of human NCI/ADR-RES cells incubated for 48 hrs by sulforhodamine B assay
SR = assay: Growth inhibition of human SR cells assessed as cell growth at 10 uM incubated for 48 hrs by sulforhodamine B assay relative to control; settings: read-out: Activity
A549 = assay: Growth inhibition of human A549/ATCC cells assessed as cell growth at 10 uM incubated for 48 hrs by sulforhodamine B assay relative to control; settings: A549, 48 h, read-out: Activity
NCI-H226 [1] = assay: Growth inhibition of human NCI-H226 cells incubated for 48 hrs by sulforhodamine B assay; settings: NCI-H226, 48 h
U-251 = assay: Growth inhibition of human U251 cells assessed as cell growth at 10 uM incubated for 48 hrs by sulforhodamine B assay relative to control; settings: U-251, 48 h, read-out: Activity
Hs-578T [2] = assay: Growth inhibition of human Hs 578T cells assessed as cell growth at 10 uM incubated for 48 hrs by sulforhodamine B assay relative to control; settings: read-out: Activity
SK-OV-3 [3] = assay: Growth inhibition of human SKOV3 cells assessed as cell growth at 10 uM incubated for 48 hrs by sulforhodamine B assay relative to control; settings: SK-OV-3, 48 h, read-out: Activity
Hs-578T [4] = assay: Growth inhibition of human Hs 578T cells incubated for 48 hrs by sulforhodamine B assay
SN12C = assay: Growth inhibition of human SN12C cells assessed as cell growth at 10 uM incubated for 48 hrs by sulforhodamine B assay relative to control; settings: read-out: Activity
SK-MEL-2 = assay: Growth inhibition of human SK-MEL-2 cells assessed as cell growth at 10 uM incubated for 48 hrs by sulforhodamine B assay relative to control; settings: SK-MEL-2, 48 h, read-out: Activity
DU-145 = assay: Growth inhibition of human DU145 cells assessed as cell growth at 10 uM incubated for 48 hrs by sulforhodamine B assay relative to control; settings: DU-145, 48 h, read-out: Activity
HCC 2998 = assay: Growth inhibition of human HCC2998 cells assessed as cell growth at 10 uM incubated for 48 hrs by sulforhodamine B assay relative to control; settings: HCC 2998, 48 h, read-out: Activity
HCT-116 = assay: Growth inhibition of human HCT116 cells assessed as cell growth at 10 uM incubated for 48 hrs by sulforhodamine B assay relative to control; settings: HCT-116, 48 h, read-out: Activity
OVCAR-3 = assay: Growth inhibition of human OVCAR3 cells assessed as cell growth at 10 uM incubated for 48 hrs by sulforhodamine B assay relative to control; settings: OVCAR-3, 48 h, read-out: Activity
HCT-15 = assay: Growth inhibition of human HCT15 cells incubated for 48 hrs by sulforhodamine B assay; settings: HCT-15, 48 h
EKVX = assay: Growth inhibition of human EKVX cells assessed as cell growth at 10 uM incubated for 48 hrs by sulforhodamine B assay relative to control; settings: read-out: Activity
SK-OV-3 [5] = assay: Growth inhibition of human SKOV3 cells incubated for 48 hrs by sulforhodamine B assay; settings: SK-OV-3, 48 h
OVCAR-4 = assay: Growth inhibition of human OVCAR4 cells assessed as cell growth at 10 uM incubated for 48 hrs by sulforhodamine B assay relative to control; settings: OVCAR-4, 48 h, read-out: Activity
SK-MEL-5 = assay: Growth inhibition of human SK-MEL-5 cells assessed as cell growth at 10 uM incubated for 48 hrs by sulforhodamine B assay relative to control; settings: SK-MEL-5, 48 h, read-out: Activity
HOP-62 = assay: Growth inhibition of human HOP62 cells assessed as cell growth at 10 uM incubated for 48 hrs by sulforhodamine B assay relative to control; settings: HOP-62, 48 h, read-out: Activity
SF-268 = assay: Growth inhibition of human SF268 cells incubated for 48 hrs by sulforhodamine B assay; settings: SF-268, 48 h
UO-31 = assay: Growth inhibition of human UO31 cells assessed as cell growth at 10 uM incubated for 48 hrs by sulforhodamine B assay relative to control; settings: UO-31, 48 h, read-out: Activity
CAKI-1 = assay: Growth inhibition of human Caki1 cells assessed as cell growth at 10 uM incubated for 48 hrs by sulforhodamine B assay relative to control; settings: CAKI-1, 48 h, read-out: Activity
A498 = assay: Growth inhibition of human A498 cells incubated for 48 hrs by sulforhodamine B assay; settings: A498, 48 h
UACC-62 = assay: Growth inhibition of human UACC62 cells assessed as cell growth at 10 uM incubated for 48 hrs by sulforhodamine B assay relative to control; settings: UACC-62, 48 h, read-out: Activity
NCI-H226 [6] = assay: Growth inhibition of human NCI-H226 cells assessed as cell growth at 10 uM incubated for 48 hrs by sulforhodamine B assay relative to control; settings: NCI-H226, 48 h, read-out: Activity
NCI-H460 = assay: Growth inhibition of human NCI-H460 cells assessed as cell growth at 10 uM incubated for 48 hrs by sulforhodamine B assay relative to control; settings: NCI-H460, 48 h, read-out: Activity
KM12 = assay: Growth inhibition of human KM12 cells assessed as cell growth at 10 uM incubated for 48 hrs by sulforhodamine B assay relative to control; settings: KM12, 48 h, read-out: Activity
Malme-3M = assay: Growth inhibition of human MALME-3M cells assessed as cell growth at 10 uM incubated for 48 hrs by sulforhodamine B assay relative to control; settings: read-out: Activity
MDA-MB-468 = assay: Growth inhibition of human MDA-MB-468 cells assessed as cell growth at 10 uM incubated for 48 hrs by sulforhodamine B assay relative to control; settings: MDA-MB-468, 48 h, read-out: Activity
[7] = read-out: LC50 (the source's name)

Cc1nc2cc(O)c(O)cc2cc1Oc1ccc(NC(=O)Nc2ccc(Cl)c(Cl)c2)cc1
growth at 10 µM (RPMI-8226): 75.7%
growth at 10 µM (RXF 393): 20.4%
GI50 (NCI/ADR-RES): 8.74 µM
TGI (NCI/ADR-RES): > 32.5 µM
CC50 (NCI/ADR-RES; [7]): > 32.5 µM
growth at 10 µM (SR): 8.92%
growth at 10 µM (A549): 50.5%
GI50 (NCI-H226 [1]): 11.8 µM
TGI (NCI-H226 [1]): > 32.5 µM
CC50 (NCI-H226 [1]; [7]): > 32.5 µM
growth at 10 µM (U-251): 41.4%
growth at 10 µM (Hs-578T [2]): 105%
growth at 10 µM (SK-OV-3 [3]): 45%
GI50 (Hs-578T [4]): 12.8 µM
TGI (Hs-578T [4]): > 32.5 µM
CC50 (Hs-578T [4]; [7]): > 32.5 µM
growth at 10 µM (SN12C): 85.7%
growth at 10 µM (SK-MEL-2): 77.7%
growth at 10 µM (DU-145): 60.3%
growth at 10 µM (HCC 2998): 93.4%
growth at 10 µM (HCT-116): 44.6%
growth at 10 µM (OVCAR-3): 67.9%
GI50 (HCT-15): 5.47 µM
LC50 (lethal concentration, 50% net cell kill) (HCT-15): > 32.5 µM
TGI (HCT-15): > 32.5 µM
growth at 10 µM (EKVX): 98.5%
GI50 (SK-OV-3 [5]): 11.7 µM
TGI (SK-OV-3 [5]): > 32.5 µM
CC50 (SK-OV-3 [5]; [7]): > 32.5 µM
growth at 10 µM (OVCAR-4): 67.7%
growth at 10 µM (SK-MEL-5): -42.2%
growth at 10 µM (HOP-62): 35.7%
GI50 (SF-268): 8.45 µM
LC50 (50% lethal concentration) (SF-268): > 32.5 µM
TGI (SF-268): > 32.5 µM
growth at 10 µM (UO-31): 58.6%
growth at 10 µM (CAKI-1): 27.3%
GI50 (A498): > 32.5 µM
TGI (A498): > 32.5 µM
CC50 (A498; [7]): > 32.5 µM
growth at 10 µM (UACC-62): 84.5%
growth at 10 µM (NCI-H226 [6]): 38.3%
growth at 10 µM (NCI-H460): 62.1%
growth at 10 µM (KM12): 74.7%
growth at 10 µM (Malme-3M): 85.2%

COc1cc2cc(Oc3ccc(NC(=O)Nc4ccc(C(F)(F)F)cc4)cc3)c(C)nc2cc1OC
growth at 10 µM (RPMI-8226): 52.7%
growth at 10 µM (RXF 393): 6.29%
growth at 10 µM (SR): 59.6%
growth at 10 µM (A549): 32.4%
growth at 10 µM (U-251): 15%
growth at 10 µM (Hs-578T [2]): 70.9%
growth at 10 µM (SK-OV-3 [3]): 38.8%
growth at 10 µM (SN12C): 72.2%
growth at 10 µM (SK-MEL-2): 76.7%
growth at 10 µM (DU-145): 71.4%
growth at 10 µM (HCC 2998): 94.8%
growth at 10 µM (HCT-116): 47.2%
growth at 10 µM (OVCAR-3): 67%
growth at 10 µM (EKVX): 75.7%
growth at 10 µM (OVCAR-4): 49%
growth at 10 µM (SK-MEL-5): 47.4%
growth at 10 µM (HOP-62): 18.8%
growth at 10 µM (UO-31): 87.6%
growth at 10 µM (CAKI-1): 70.4%
growth at 10 µM (UACC-62): 69.2%
growth at 10 µM (NCI-H226 [6]): 20.9%
growth at 10 µM (MDA-MB-468): 40.1%
growth at 10 µM (NCI-H460): 42.8%
growth at 10 µM (KM12): 64.4%
growth at 10 µM (Malme-3M): 82.9%
